Laboratory results reported in patent US9663496B2, “AMPK-activating heterocyclic compounds and methods for using the same” (Rigel Pharmaceuticals, Inc., priority 2010, dated 2017).

Biological target: AMPK
Assay: AMPK activation, enzyme-linked immunosorbent assay
Assay type: biochemical
Conditions: EC50 for AMPK activation, ELISA
Method: Compounds were assayed for their ability to activate AMPK using an enzyme-linked immunosorbent assay. Reagents and procedures for measuring AMPK activation are well known and kits for AMPK activation assays are commercially available.

| Structure (SMILES) | EC50 [nM] |
| --- | --- |
| COc1ccc(O[C@H]2CC[C@@H](NC(=O)c3ccc(C(=O)N4CCC(C(=O)c5ccc(OC)cc5)CC4)cn3)CC2)cc1 [Compound 184, 5-(4-(4-methoxybenzoyl)piperidine-1-carbonyl)-N-((cis)-4-(4-methoxyphenoxy)cyclohexyl)picolinamide] | < 500 |
| O=C(NC1CCN(Cc2cc(F)cc(F)c2)CC1)c1ccc(C(=O)N2CCC(C(=O)c3ccc(F)c(F)c3)CC2)cn1 [Compound 298, 5-(4-(3,4-difluorobenzoyl)piperidine-1-carbonyl)-N-(1-(3,5-difluorobenzyl)piperidin-4-yl)picolinamide] | < 500 |
| O=C(NC1CCN(Cc2cc(F)cc(F)c2)CC1)c1ccc(C(=O)N2CC(OCc3ccc(F)cc3)C2)cn1 [Compound 308, N-(1-(3,5-difluorobenzyl)piperidin-4-yl)-5-(3-(4-fluorobenzyloxy)azetidine-1-carbonyl)picolinamide] | < 500 |
| CN(C)C(=O)c1ccc(OC2CCN(C(=O)c3ccc(C(=O)Nc4ccc(Oc5ccc(F)cc5)nc4)nc3)CC2)cc1 [Compound 360, 5-(4-(4-(dimethylcarbamoyl)phenoxy)piperidine-1-carbonyl)-N-(6-(4-fluorophenoxy)pyridin-3-yl)picolinamide] | < 500 |
| CC(=O)Nc1cccc(OC2CCN(C(=O)c3ccc(C(=O)Nc4ccc(Oc5ccc(F)cc5)nc4)cn3)CC2)c1 [Compound 414, 6-(4-(3-acetamidophenoxy)piperidine-1-carbonyl)-N-(6-(4-fluorophenoxy)pyridin-3-yl)nicotinamide] | 1000 to 5000 |
| CC(C)(C)OC(=O)NCC#Cc1cc(C(=O)N2CCN(Cc3ccc(F)cc3)CC2)cnc1C(=O)NC1CCN(Cc2ccc(C#N)cc2)CC1 [Compound 164, tert-butyl 3-(2-(1-(4-cyanobenzyl)piperidin-4-ylcarbamoyl)-5-(4-(4-fluorobenzyl)piperazine-1-carbonyl)pyridin-3-yl)prop-2-ynylcarbamate] | 500 to 1000 |
| O=C(N[C@@H]1CCN(Cc2ccncc2)C[C@@H]1F)c1ccc(C(=O)N2CCN(Cc3ccc(F)cc3)CC2)cn1 (relative stereo) [Compound 104, N-(cis-3-fluoro-1-(pyridin-4-ylmethyl)piperidin-4-yl)-5-(4-(4-fluorobenzyl)piperazine-1-carbonyl)picolinamide] | < 500 |
| N#Cc1ccc(CN2CCC(NC(=O)c3ccc(N4CCN(Cc5ccc(F)cc5)CC4)nn3)CC2)cc1 [Compound 491, N-(1-(4-cyanobenzyl)piperidin-4-yl)-6-(4-(4-fluorobenzyl)piperazin-1-yl)pyridazine-3-carboxamide] | 1000 to 5000 |
| COc1ccc(C(=O)C2CCN(C(=O)c3ccc(C(=O)N[C@@H]4CCN(Cc5ccc(C#N)c(F)c5)C[C@H]4F)cn3)CC2)cc1 (relative stereo) [Compound 354, N-((trans)-1-(4-cyano-3-fluorobenzyl)-3-fluoropiperidin-4-yl)-6-(4-(4-methoxybenzoyl)piperidine-1-carbonyl)nicotinamide] | < 500 |
| CS(=O)(=O)c1ccc(C(=O)C2CCN(C(=O)c3ccc(C(=O)Nc4ccc(Oc5ccc(F)cc5)nc4)nc3)CC2)cc1 [Compound 232, N-(6-(4-fluorophenoxy)pyridin-3-yl)-5-(4-(4-(methylsulfonyl)benzoyl)piperidine-1-carbonyl)picolinamide] | < 500 |
| O=C(Nc1ccc(-c2ccccc2)cc1)c1ccc(C(=O)NC2CCN(Cc3ccccc3)CC2)nc1 [Compound 105, N2-(1-benzylpiperidin-4-yl)-N5-(biphenyl-4-yl)pyridine-2,5-dicarboxamide] | > 10000 |
| CC(=O)Nc1ccc(OC2CCN(C(=O)c3ccc(C(=O)Nc4ccc(Oc5ccc(F)cc5)nc4)nc3)CC2)cc1 [Compound 408, 5-(4-(4-acetamidophenoxy)piperidine-1-carbonyl)-N-(6-(4-fluorophenoxy)pyridin-3-yl)picolinamide] | < 500 |
| COc1ccc(C(=O)C2CCN(C(=O)c3ccc(C(=O)N[C@@H]4CCN(Cc5cc(C)on5)C[C@@H]4F)cn3)CC2)cc1 [Compound 426, N-((3S,4R)-3-fluoro-1-((5-methylisoxazol-3-yl)methyl)piperidin-4-yl)-6-(4-(4-methoxybenzoyl)piperidine-1-carbonyl)nicotinamide] | < 500 |
| N#Cc1ccc(CN2CCC(NC(=O)c3ccc(-c4cn(Cc5ccccc5)nn4)cn3)CC2)cc1 [Compound 121, 5-(1-benzyl-1H-1,2,3-triazol-4-yl)-N-(1-(4-cyanobenzyl)piperidin-4-yl)picolinamide] | 1000 to 5000 |
| O=C(Nc1ccc(Oc2ccc(F)cc2)nc1)c1ccc(C(=O)N2CCC(Oc3ccc(F)cc3)CC2)cn1 [Compound 273, 5-(4-(4-fluorophenoxy)piperidine-1-carbonyl)-N-(6-(4-fluorophenoxy)pyridin-3-yl)picolinamide] | < 500 |
| O=C(Nc1ccc(Oc2ccc(F)cc2)nc1)c1ccc(C(=O)N2CCC(Oc3ccc(C(=O)C4CC4)cc3)CC2)nc1 [Compound 457, 6-(4-(4-(cyclopropanecarbonyl)phenoxy)piperidine-1-carbonyl)-N-(6-(4-fluorophenoxy)pyridin-3-yl)nicotinamide] | < 500 |

Other lines, results leading:

| EC50 [nM] | Structure (SMILES) |
| --- | --- |
| < 500 | COc1ccc(CN2CCN(C(=O)c3ccc(C(=O)NC4CCN(Cc5ccc(C#N)cc5)CC4)nc3)CC2)cc1 [Compound 101, N-(1-(4-cyanobenzyl)piperidin-4-yl)-5-(4-(4-methoxybenzyl)piperazine-1-carbonyl)picolinamide] |
| < 500 | N#Cc1ccc(CN2CCC(NC(=O)c3ccc(C(=O)N4CCN(S(=O)(=O)c5ccc(F)cc5)CC4)cn3)CC2)cc1 [Compound 78, N-(1-(4-cyanobenzyl)piperidin-4-yl)-5-(4-(4-fluorophenylsulfonyl)piperazine-1-carbonyl)picolinamide] |
| < 500 | COc1ccc(C(=O)C2CCN(C(=O)c3ccc(C(=O)N[C@@H]4CCN(Cc5ccc(C#N)cc5)C[C@H]4F)cn3)CC2)cc1 (relative stereo) [Compound 349, N-((trans)-1-(4-cyanobenzyl)-3-fluoropiperidin-4-yl)-6-(4-(4-methoxybenzoyl)piperidine-1-carbonyl)nicotinamide] |
| < 500 | N#Cc1ccc(OC2CCN(C(=O)c3ccc(C(=O)N[C@H]4CC[C@@H](Oc5ccc(C#N)cc5)CC4)cn3)CC2)cc1 [Compound 321, N-((cis)-4-(4-cyanophenoxy)cyclohexyl)-6-(4-(4-cyanophenoxy)piperidine-1-carbonyl)nicotinamide] |
| < 500 | N#Cc1ccc(CN2CCC(NC(=O)c3ccc(C(=O)N4CCN(c5ccc(C(F)(F)F)cc5)CC4)cn3)CC2)cc1 [Compound 339, N-(1-(4-cyanobenzyl)piperidin-4-yl)-5-(4-(4-(trifluoromethyl)phenyl)piperazine-1-carbonyl)picolinamide] |
| < 500 | N#Cc1ccc(CN2CCC(NC(=O)c3ccc(C(=O)N4CCC(Oc5ccc(F)c(F)c5)CC4)cn3)CC2)cc1 [Compound 158, N-(1-(4-cyanobenzyl)piperidin-4-yl)-5-(4-(3,4-difluorophenoxy)piperidine-1-carbonyl)picolinamide] |
| < 500 | COc1ccc(OC2CCN(C(=O)c3ccc(C(=O)NC4CCN(Cc5cc(F)cc(F)c5)CC4)nc3)CC2)cc1 [Compound 296, N-(1-(3,5-difluorobenzyl)piperidin-4-yl)-5-(4-(4-methoxyphenoxy)piperidine-1-carbonyl)picolinamide] |
| 1000 to 5000 | COc1ccc(C(=O)C2CCN(C(=O)c3ccc(C(=O)NC4CCN(Cc5ccc(C(=O)N(C)C)cc5)CC4)cn3)CC2)cc1 [Compound 490, N-(1-(4-(dimethylcarbamoyl)benzyl)piperidin-4-yl)-6-(4-(4-methoxybenzoyl)piperidine-1-carbonyl)nicotinamide] |
| < 500 | N#Cc1ccc(CN2CCC(NC(=O)c3ccc(C(=O)N4CCN(c5ccc(C(=O)C6CC6)cc5)CC4)cn3)CC2)cc1 [Compound 258, N-(1-(4-cyanobenzyl)piperidin-4-yl)-5-(4-(4-(cyclopropanecarbonyl)phenyl)piperazine-1-carbonyl)picolinamide] |
| < 500 | COc1ccc(C(=O)C2CCN(C(=O)c3ccc(C(=O)N[C@H]4CC[C@@H](Oc5ccc(F)cc5)CC4)cn3)CC2)cc1 [Compound 316, N-((cis)-4-(4-fluorophenoxy)cyclohexyl)-6-(4-(4-methoxybenzoyl)piperidine-1-carbonyl)nicotinamide] |
| 1000 to 5000 | CS(=O)(=O)c1ccc(C(=O)C2CCN(C(=O)c3ccc(C(=O)NC4CCN(Cc5ccc(N6CCCC6)cc5)CC4)cn3)CC2)cc1 [Compound 229, 6-(4-(4-(methylsulfonyl)benzoyl)piperidine-1-carbonyl)-N-(1-(4-(pyrrolidin-1-yl)benzyl)piperidin-4-yl)nicotinamide] |
| 1000 to 5000 | N#Cc1ccc(CN2CCC(NC(=O)c3ccc(C(=O)N4CCC(Oc5ccc(NS(=O)(=O)C6CC6)cc5)CC4)nc3)CC2)cc1 [Compound 448, N-(1-(4-cyanobenzyl)piperidin-4-yl)-6-(4-(4-(cyclopropanesulfonamido)phenoxy)piperidine-1-carbonyl)nicotinamide] |
| < 500 | N#Cc1ccc(CN2CCC(NC(=O)c3ccc(N4CCC(Oc5ccc(C#N)cc5)CC4)cn3)CC2)cc1 [Compound 165, N-(1-(4-cyanobenzyl)piperidin-4-yl)-5-(4-(4-cyanophenoxy)piperidin-1-yl)picolinamide] |
| < 500 | CS(=O)(=O)c1ccc(OC2CCN(C(=O)c3ccc(C(=O)NC4CCN(Cc5ccc(C#N)cc5)CC4)cn3)CC2)cc1 [Compound 397, N-(1-(4-cyanobenzyl)piperidin-4-yl)-6-(4-(4-(methylsulfonyl)phenoxy)piperidine-1-carbonyl)nicotinamide] |
| < 500 | N#Cc1ccc(OC2CCN(C(=O)c3ccc(C(=O)NC4CCN(Cc5ccc(F)cc5)CC4)nc3)CC2)cc1 [Compound 200, 5-(4-(4-cyanophenoxy)piperidine-1-carbonyl)-N-(1-(4-fluorobenzyl)piperidin-4-yl)picolinamide] |
| 5000 to 10000 | N#Cc1ccc(CC2CCC(NC(=O)c3cccc(C(=O)N4CCN(Cc5ccc(F)cc5)CC4)n3)CC2)cc1 (centres unmarked) [Compound 99, N-(4-(4-cyanobenzyl)cyclohexyl)-6-(4-(4-fluorobenzyl)piperazine-1-carbonyl)picolinamide] |
